Key:
Conditions in all cases: 48 h
NOMO1 [1] = test: cell viability relative to DMSO control; higher = less cytotoxic
Summary of the method: (§1)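 Viability was expressed as a per-plate percentage of DMSO wells, with cell-free wells as background. Leukemia cells (NOMO1 or SEM at 500 cells/well, P12-Ichikawa at 1000 cells/well) were adapted for at least four passages in each medium and seeded in 1536-well plates (5 μl). Library compounds in DMSO were pin-dosed over an 11-point threefold series from 47 μM to 0.79 nM, and CellTiter-Glo One luminescence was read after 48 h at 37°C.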

P12-Ichikawa [2] = test: as above
Summary of the method: as §1

SEM cells [3] = test: as above
Summary of the method: as §1

NOMO1 [4] = test: AUC of viability dose-response curve (% viability x log10 dose units); higher = less sensitive
Summary of the method: (§2)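 Leukemia cells adapted to each medium were seeded at 500 or 1000 cells/well in 1536-well plates and dosed with library compounds in DMSO at 11 threefold doses from 47 μM to 0.79 nM for 48 h at 37°C. CellTiter-Glo One luminescence was normalised per plate to DMSO and cell-free wells, then fitted with a four-parameter log-logistic model over log10 doses. Area under the curve was taken from this fit by the trapezoidal rule, with curves above full viability scaled and curves failing quality control removed.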

P12-Ichikawa [5] = test: as above
Summary of the method: as §2

SEM cells [6] = test: as above
Summary of the method: as §2

COc1nc(-c2ccc3c(c2)OCO3)n(-c2ccc(NC(=O)CSc3ccccc3)cc2)n1
cell viability [%]
Conditions | NOMO1 [1] | P12-Ichikawa [2] | SEM cells [3]
HPLM + 10% dialyzed FBS, 0.000781 µM | – | 109 | 118
HPLM + 10% dialyzed FBS, 0.00234 µM | – | 108 | 97.1
HPLM + 10% dialyzed FBS, 0.00702 µM | – | 111 | 106
HPLM + 10% dialyzed FBS, 0.0211 µM | – | 107 | 112
HPLM + 10% dialyzed FBS, 0.0632 µM | – | 108 | 114
HPLM + 10% dialyzed FBS, 0.19 µM | – | 110 | 103
HPLM + 10% dialyzed FBS, 0.569 µM | – | 112 | 117
HPLM + 10% dialyzed FBS, 1.71 µM | – | 104 | 98
HPLM + 10% dialyzed FBS, 5.12 µM | – | 104 | 110
HPLM + 10% dialyzed FBS, 15.4 µM | – | 103 | 98.5
HPLM + 10% dialyzed FBS, 46.1 µM | – | 108 | 98.9
RPMI 5 mM glucose + 10% FBS, 0.000781 µM | 105 | 107 | 113
RPMI 5 mM glucose + 10% FBS, 0.00234 µM | 108 | 116 | 104
RPMI 5 mM glucose + 10% FBS, 0.00702 µM | 114 | 113 | 117
RPMI 5 mM glucose + 10% FBS, 0.0211 µM | 103 | 118 | 102
RPMI 5 mM glucose + 10% FBS, 0.0632 µM | 113 | 118 | 107
RPMI 5 mM glucose + 10% FBS, 0.19 µM | 106 | 113 | 108
RPMI 5 mM glucose + 10% FBS, 0.569 µM | 107 | 113 | 94.2
RPMI 5 mM glucose + 10% FBS, 1.71 µM | 102 | 103 | 95.5
RPMI 5 mM glucose + 10% FBS, 5.12 µM | 116 | 102 | 95.8
RPMI 5 mM glucose + 10% FBS, 15.4 µM | 89.1 | 97.2 | 101
RPMI 5 mM glucose + 10% FBS, 46.1 µM | 21.2 | 92.5 | 86.7
RPMI 5 mM glucose + 10% dialyzed FBS, 0.000781 µM | 102 | 130 | 96.4
RPMI 5 mM glucose + 10% dialyzed FBS, 0.00234 µM | 108 | 107 | 108
RPMI 5 mM glucose + 10% dialyzed FBS, 0.00702 µM | 110 | 119 | 122
RPMI 5 mM glucose + 10% dialyzed FBS, 0.0211 µM | 117 | 107 | 119
RPMI 5 mM glucose + 10% dialyzed FBS, 0.0632 µM | 105 | 116 | 119
RPMI 5 mM glucose + 10% dialyzed FBS, 0.19 µM | 106 | 104 | 102
RPMI 5 mM glucose + 10% dialyzed FBS, 0.569 µM | 103 | 120 | 89
RPMI 5 mM glucose + 10% dialyzed FBS, 1.71 µM | 105 | 108 | 105
RPMI 5 mM glucose + 10% dialyzed FBS, 5.12 µM | 97.7 | 95.9 | 118
RPMI 5 mM glucose + 10% dialyzed FBS, 15.4 µM | 98.7 | 108 | 99.7
RPMI 5 mM glucose + 10% dialyzed FBS, 46.1 µM | 23.1 | 85.6 | 82.9

AUC of viability dose-response curve
Conditions | NOMO1 [4] | P12-Ichikawa [5] | SEM cells [6]
HPLM + 10% dialyzed FBS | 440 | 470 | 457
RPMI 5 mM glucose + 10% FBS | 449 | 454 | 443
RPMI 5 mM glucose + 10% dialyzed FBS | 455 | 428 | 453

CC(C)C[C@H](CN)CC(=O)O
cell viability [%]
Conditions | NOMO1 [1] | P12-Ichikawa [2] | SEM cells [3]
HPLM + 10% dialyzed FBS, 0.000781 µM | 105 | 111 | 110
HPLM + 10% dialyzed FBS, 0.00234 µM | 108 | 106 | 116
HPLM + 10% dialyzed FBS, 0.00702 µM | 122 | 106 | 105
HPLM + 10% dialyzed FBS, 0.0211 µM | 109 | 109 | 111
HPLM + 10% dialyzed FBS, 0.0632 µM | 98.1 | 106 | 97.6
HPLM + 10% dialyzed FBS, 0.19 µM | 96.1 | 103 | 98.8
HPLM + 10% dialyzed FBS, 0.569 µM | 108 | 101 | 115
HPLM + 10% dialyzed FBS, 1.71 µM | 117 | 102 | 102
HPLM + 10% dialyzed FBS, 5.12 µM | 101 | 95.7 | 119
HPLM + 10% dialyzed FBS, 15.4 µM | 79.6 | 94.2 | 37.9
HPLM + 10% dialyzed FBS, 46.1 µM | 91.7 | 93 | 93.9
RPMI 5 mM glucose + 10% FBS, 0.000781 µM | 90.3 | 99.4 | 102
RPMI 5 mM glucose + 10% FBS, 0.00234 µM | 95.6 | 105 | 102
RPMI 5 mM glucose + 10% FBS, 0.00702 µM | 102 | 102 | 98.7
RPMI 5 mM glucose + 10% FBS, 0.0211 µM | 97.8 | 96.2 | 105
RPMI 5 mM glucose + 10% FBS, 0.0632 µM | 87.9 | 101 | 93.9
RPMI 5 mM glucose + 10% FBS, 0.19 µM | 89.9 | 99.3 | 88.7
RPMI 5 mM glucose + 10% FBS, 0.569 µM | 99.3 | 93.6 | 104
RPMI 5 mM glucose + 10% FBS, 1.71 µM | 93.6 | 96.1 | 113
RPMI 5 mM glucose + 10% FBS, 5.12 µM | 91.5 | 92.3 | 103
RPMI 5 mM glucose + 10% FBS, 15.4 µM | 90.3 | 91.5 | 41.2
RPMI 5 mM glucose + 10% FBS, 46.1 µM | 83.8 | 95.6 | 92.1
RPMI 5 mM glucose + 10% dialyzed FBS, 0.000781 µM | 97.3 | 103 | 101
RPMI 5 mM glucose + 10% dialyzed FBS, 0.00234 µM | 100 | 102 | 105
RPMI 5 mM glucose + 10% dialyzed FBS, 0.00702 µM | 105 | 107 | 107
RPMI 5 mM glucose + 10% dialyzed FBS, 0.0211 µM | 106 | 106 | 103
RPMI 5 mM glucose + 10% dialyzed FBS, 0.0632 µM | 95.8 | 97.1 | 110
RPMI 5 mM glucose + 10% dialyzed FBS, 0.19 µM | 97.6 | 96 | 102
RPMI 5 mM glucose + 10% dialyzed FBS, 0.569 µM | 99.3 | 98.9 | 113
RPMI 5 mM glucose + 10% dialyzed FBS, 1.71 µM | 89.3 | 96.6 | 109
RPMI 5 mM glucose + 10% dialyzed FBS, 5.12 µM | 99.2 | 95.7 | 97.1
RPMI 5 mM glucose + 10% dialyzed FBS, 15.4 µM | 92.1 | 97.9 | 38.8
RPMI 5 mM glucose + 10% dialyzed FBS, 46.1 µM | 90 | 98.4 | 110

AUC of viability dose-response curve
Conditions | NOMO1 [4] | P12-Ichikawa [5] | SEM cells [6]
HPLM + 10% dialyzed FBS | 460 | 450 | 449
RPMI 5 mM glucose + 10% FBS | 445 | 458 | 452
RPMI 5 mM glucose + 10% dialyzed FBS | 458 | 455 | 451

O=C(NC1CCNCC1)c1n[nH]cc1NC(=O)c1c(Cl)cccc1Cl
cell viability [%]
Conditions | NOMO1 [1] | P12-Ichikawa [2] | SEM cells [3]
HPLM + 10% dialyzed FBS, 0.000781 µM | 114 | 106 | 93
HPLM + 10% dialyzed FBS, 0.00234 µM | 110 | 111 | 95.9
HPLM + 10% dialyzed FBS, 0.00702 µM | 123 | 117 | 103
HPLM + 10% dialyzed FBS, 0.0211 µM | 128 | 111 | 127
HPLM + 10% dialyzed FBS, 0.0632 µM | 126 | 115 | 118
HPLM + 10% dialyzed FBS, 0.19 µM | 127 | 111 | 119
HPLM + 10% dialyzed FBS, 0.569 µM | 112 | 112 | 98.8
HPLM + 10% dialyzed FBS, 1.71 µM | 23.5 | 54.1 | 16.4
HPLM + 10% dialyzed FBS, 5.12 µM | 7.29 | 11.6 | 7.23
HPLM + 10% dialyzed FBS, 15.4 µM | 5.85 | 12.2 | 5.22
HPLM + 10% dialyzed FBS, 46.1 µM | 3.89 | 9.17 | 3.82
RPMI 5 mM glucose + 10% FBS, 0.000781 µM | 112 | 114 | –
RPMI 5 mM glucose + 10% FBS, 0.00234 µM | 110 | 115 | –
RPMI 5 mM glucose + 10% FBS, 0.00702 µM | 110 | 112 | –
RPMI 5 mM glucose + 10% FBS, 0.0211 µM | 104 | 109 | –
RPMI 5 mM glucose + 10% FBS, 0.0632 µM | 112 | 113 | –
RPMI 5 mM glucose + 10% FBS, 0.19 µM | 115 | 121 | –
RPMI 5 mM glucose + 10% FBS, 0.569 µM | 111 | 111 | –
RPMI 5 mM glucose + 10% FBS, 1.71 µM | 33.9 | 50.9 | –
RPMI 5 mM glucose + 10% FBS, 5.12 µM | 9.78 | 12.9 | –
RPMI 5 mM glucose + 10% FBS, 15.4 µM | 7.73 | 12.1 | –
RPMI 5 mM glucose + 10% FBS, 46.1 µM | 3.45 | 7.33 | –
RPMI 5 mM glucose + 10% dialyzed FBS, 0.000781 µM | 116 | 114 | 108
RPMI 5 mM glucose + 10% dialyzed FBS, 0.00234 µM | 116 | 112 | 97.6
RPMI 5 mM glucose + 10% dialyzed FBS, 0.00702 µM | 115 | 109 | 126
RPMI 5 mM glucose + 10% dialyzed FBS, 0.0211 µM | 113 | 115 | 115
RPMI 5 mM glucose + 10% dialyzed FBS, 0.0632 µM | 117 | 116 | 118
RPMI 5 mM glucose + 10% dialyzed FBS, 0.19 µM | 107 | 112 | 121
RPMI 5 mM glucose + 10% dialyzed FBS, 0.569 µM | 98.1 | 103 | 129
RPMI 5 mM glucose + 10% dialyzed FBS, 1.71 µM | 35.8 | 79.1 | 24.6
RPMI 5 mM glucose + 10% dialyzed FBS, 5.12 µM | 7.61 | 13.7 | 7.87
RPMI 5 mM glucose + 10% dialyzed FBS, 15.4 µM | 7.43 | 13.8 | 5.31
RPMI 5 mM glucose + 10% dialyzed FBS, 46.1 µM | 3.85 | 10.1 | 3.76

AUC of viability dose-response curve
Conditions | NOMO1 [4] | P12-Ichikawa [5] | SEM cells [6]
HPLM + 10% dialyzed FBS | 321 | 345 | 319
RPMI 5 mM glucose + 10% FBS | 332 | 341 | 323
RPMI 5 mM glucose + 10% dialyzed FBS | 324 | 357 | 326

Reference: the supplement of paper PMC11451515
